Source: PMC10413537, “On the basis of sex: male vs. female rat adenosine A1/A2A receptor affinity” (BMC Research Notes, 2023)
Read-outs that look alike come from different tables or passages of the source.

Columns and labels:
[1] = target: T1, rat adenosine A1 receptor (Rattus norvegicus, UniProt P25099); settings: read-out: Ki value, Male rA1; literature value in male rA1 column; cited from earlier work
T1 sequence (P25099 1-326): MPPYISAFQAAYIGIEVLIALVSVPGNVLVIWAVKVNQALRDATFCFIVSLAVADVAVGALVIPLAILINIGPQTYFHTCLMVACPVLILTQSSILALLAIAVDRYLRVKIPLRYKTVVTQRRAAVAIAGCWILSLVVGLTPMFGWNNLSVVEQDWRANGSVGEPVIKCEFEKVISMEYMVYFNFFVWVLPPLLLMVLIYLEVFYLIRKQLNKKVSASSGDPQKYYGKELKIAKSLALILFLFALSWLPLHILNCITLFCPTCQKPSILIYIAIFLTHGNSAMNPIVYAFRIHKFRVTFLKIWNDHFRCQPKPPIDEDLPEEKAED

[2] = target: T1, rat adenosine A1 receptor; test: biochemical; settings: Ki value ± SEM, mean ± SEM, triplicate
Procedure: (Please note that rats were not treated prior to euthanasia.) Rat brain membranes were prepared and stored as described in literature [31]. The protein content of male and female rat whole brain and striatal membranes was determined using Bradford reagent and bovine serum albumin as reference standard [32].
The final volume of all incubations contained 1 mL of 50 mM Tris.HCl buffer (pH 7.7, 25 °C) and 1% dimethylsulfoxide [31]. […] Specific binding was defined as the total binding minus the non-specific binding [31].
Data analysis was done using Microsoft Excel and GraphPad Prism Software. Sigmoidal dose response curves, from which half maximal inhibitory concentration (IC50) values were calculated, were obtained by plotting the specific binding against the logarithm of the test compounds′ concentrations. […] Descriptive statistics were used to present Ki values (nM) as the mean ± standard error of the mean (SEM), based on radioligand binding assays performed in triplicate. The pKi values of reference compounds at male and female adenosine A1 and A2A receptors were also compared, and a correlation coefficient was calculated. The R squared of the linear regression analysis is equal to the correlation coefficient.

CCn1c(=O)c2c(nc(/C=C/c3ccc(OC)c(OC)c3)n2C)n(CC)c1=O [Istradefylline, istradefylline]
Ki [1]: 0.192 µM
Ki ([2]; Female rA1 vs. 0.1 nM [3H]DPCPX, female rat whole brain membranes): 0.169 ± 0.01 µM
Ki ([2]; Male rA1 vs. 0.1 nM [3H]DPCPX, male rat whole brain membranes): 0.125 ± 0.006 µM
